Measured values reported in the supplement of paper PMC11451515.

System: SEM cells
Assay: cell viability relative to DMSO control; higher = less cytotoxic
Details: 48 h
Method in brief: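 Cells were incubated for 48 h at 37°C before CellTiter-Glo One luminescence was read. The cells were NOMO1 or SEM (500 cells/well) or P12-Ichikawa (1000 cells/well) leukemia cells, adapted for at least four passages in each medium and seeded in 1536-well plates (5 μl). Dosing used library compounds in DMSO applied by pin over 11 threefold points, 47 μM to 0.79 nM. Viability is the per-plate percentage of DMSO wells, with cell-free wells as background.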

[1] = HPLM + 10% dialyzed FBS, 0.000781 µM
[2] = HPLM + 10% dialyzed FBS, 0.00234 µM
[3] = HPLM + 10% dialyzed FBS, 0.00702 µM
[4] = HPLM + 10% dialyzed FBS, 0.0211 µM
[5] = HPLM + 10% dialyzed FBS, 0.0632 µM
[6] = HPLM + 10% dialyzed FBS, 0.19 µM
[7] = HPLM + 10% dialyzed FBS, 0.569 µM
[8] = HPLM + 10% dialyzed FBS, 1.71 µM
[9] = HPLM + 10% dialyzed FBS, 5.12 µM
[10] = HPLM + 10% dialyzed FBS, 15.4 µM
[11] = HPLM + 10% dialyzed FBS, 46.1 µM
[12] = RPMI 5 mM glucose + 10% FBS, 0.000781 µM
[13] = RPMI 5 mM glucose + 10% FBS, 0.00234 µM
[14] = RPMI 5 mM glucose + 10% FBS, 0.00702 µM
[15] = RPMI 5 mM glucose + 10% FBS, 0.0211 µM
[16] = RPMI 5 mM glucose + 10% FBS, 0.0632 µM
[17] = RPMI 5 mM glucose + 10% FBS, 0.19 µM
[18] = RPMI 5 mM glucose + 10% FBS, 0.569 µM
[19] = RPMI 5 mM glucose + 10% FBS, 1.71 µM
[20] = RPMI 5 mM glucose + 10% FBS, 5.12 µM
[21] = RPMI 5 mM glucose + 10% FBS, 15.4 µM
[22] = RPMI 5 mM glucose + 10% FBS, 46.1 µM
[23] = RPMI 5 mM glucose + 10% dialyzed FBS, 0.000781 µM
[24] = RPMI 5 mM glucose + 10% dialyzed FBS, 0.00234 µM
[25] = RPMI 5 mM glucose + 10% dialyzed FBS, 0.00702 µM
[26] = RPMI 5 mM glucose + 10% dialyzed FBS, 0.0211 µM
[27] = RPMI 5 mM glucose + 10% dialyzed FBS, 0.0632 µM
[28] = RPMI 5 mM glucose + 10% dialyzed FBS, 0.19 µM
[29] = RPMI 5 mM glucose + 10% dialyzed FBS, 0.569 µM
[30] = RPMI 5 mM glucose + 10% dialyzed FBS, 1.71 µM
[31] = RPMI 5 mM glucose + 10% dialyzed FBS, 5.12 µM
[32] = RPMI 5 mM glucose + 10% dialyzed FBS, 15.4 µM
[33] = RPMI 5 mM glucose + 10% dialyzed FBS, 46.1 µM

SMILES | cell viability [1] | cell viability [2] | cell viability [3] | cell viability [4] | cell viability [5] | cell viability [6] | cell viability [7] | cell viability [8] | cell viability [9] | cell viability [10] | cell viability [11] | cell viability [12] | cell viability [13] | cell viability [14] | cell viability [15] | cell viability [16] | cell viability [17] | cell viability [18] | cell viability [19] | cell viability [20] | cell viability [21] | cell viability [22] | cell viability [23] | cell viability [24] | cell viability [25] | cell viability [26] | cell viability [27] | cell viability [28] | cell viability [29] | cell viability [30] | cell viability [31] | cell viability [32] | cell viability [33]
Cc1cn(-c2cc(NC(=O)c3ccc(C)c(Nc4nccc(-c5cccnc5)n4)c3)cc(C(F)(F)F)c2)cn1 | 83.5% | 92.7% | 97.1% | 107% | 107% | 109% | 95.2% | 52.4% | 40.9% | 37.3% | 35.4% | 106% | 120% | 108% | 124% | 111% | 125% | 110% | 31.4% | 31.6% | 21.4% | 17.5% | 111% | 106% | 104% | 110% | 111% | 98.9% | 102% | 26.9% | 33.6% | 21.5% | 17.2%
O=C(Nc1c(Cl)cncc1Cl)c1ccc(OC(F)F)c(OCC2CC2)c1 | 93.8% | 90.5% | 94.2% | 96.8% | 105% | 102% | 109% | 110% | 100% | 90.6% | 107% | 86.3% | 93.9% | 107% | 82% | 90.4% | 97.4% | 95.4% | 93.6% | 93.5% | 101% | 103% | 92.4% | 90.5% | 102% | 87.6% | 96.6% | 94.3% | 102% | 111% | 101% | 85.8% | 85.7%
O=C(Nc1cc2cc[nH]c2cn1)c1ccccc1 | 87.7% | 95.6% | 90.4% | 104% | 85.6% | 102% | 109% | 104% | 18.5% | 4.59% | 2.37% | 75.6% | 89.4% | 92.4% | 90.8% | 92.8% | 106% | 104% | 90% | 4.38% | 2.43% | 1% | 85.4% | 95.1% | 98.7% | 98.8% | 96.8% | 102% | 112% | 117% | 6.2% | 5.18% | 2.59%
O=c1[nH]c2ccccc2n1C1CCN(Cc2ccc(-c3nc4cc5nc[nH]c5cc4nc3-c3ccccc3)cc2)CC1 | 97.3% | 103% | 107% | 109% | 105% | 103% | 106% | 64.6% | 98.3% | 88.6% | 86.5% | 69.5% | 68.9% | 79.1% | 70.3% | 75.1% | 77.7% | 73.2% | 37.9% | 60.3% | 60.2% | 46.4% | 89.6% | 101% | 109% | 106% | 103% | 115% | 94.6% | 50.5% | 98.9% | 88.9% | 70.9%
NC(=O)c1ccc(I)c([N+](=O)[O-])c1 | 104% | 127% | 108% | 126% | 126% | 130% | 133% | 124% | 123% | 117% | 123% | 106% | 124% | 131% | 137% | 137% | 143% | 145% | 156% | 120% | 104% | 111% | 97.6% | 113% | 124% | 118% | 123% | 112% | 116% | 131% | 115% | 103% | 99.8%
Cc1cnc(NC(=O)Nc2cc(Br)c(C)cc2OC[C@@H]2CNCCO2)cn1 | 95% | 112% | 110% | 115% | 117% | 107% | 65.8% | 31.8% | 22.6% | 24.4% | 22.5% | 103% | 114% | 78.6% | 105% | 109% | 110% | 91% | 33% | 27.5% | 33.8% | 17.5% | 108% | 101% | 95.2% | 106% | 100% | 98.1% | 66.8% | 21.9% | 19.7% | 21.8% | 17.2%
OC1CCC(Nc2ncc3nc(Nc4c(F)cc(F)cc4F)n([C@@H]4CCOC4)c3n2)CC1 (stereo not given in full) | 96.4% | 93.4% | 99.2% | 110% | 118% | 108% | 110% | 107% | 125% | 80.9% | 91.4% | 96.5% | 92.9% | 103% | 95.7% | 105% | 101% | 97.4% | 105% | 95.4% | 40.9% | 99.4% | 90.4% | 111% | 114% | 96.1% | 112% | 116% | 118% | 116% | 100% | 84.3% | 87.3%
C[C@]12CCC(=O)C=C1CC[C@@H]1[C@@H]2CC[C@@]2(C)[C@H]1CC[C@]2(C)O | 93.6% | 72.8% | 86.5% | 29.9% | 86.7% | 91.1% | 68.3% | 84.9% | 90.9% | 65.6% | 78.7% | 101% | 105% | 97.3% | 29.8% | 98.1% | 95.5% | 96.1% | 74.3% | 102% | 95.8% | 85.4% | 95.5% | 82.2% | 86.9% | 41.9% | 95.2% | 98.6% | 107% | 99.7% | 100% | 98.9% | 97.4%
Cn1c(CNc2ccc(C(=N)N)cc2)nc2cc(C(=O)N(CCC(=O)O)c3ccccn3)ccc21 | 87.6% | 96.3% | 95.2% | 106% | 101% | 103% | 102% | 117% | 104% | 121% | 116% | 73.1% | 99.2% | 98.6% | 97.6% | 102% | 96.6% | 99.6% | 93.2% | 95.6% | 110% | 103% | 65.6% | 98% | 95.8% | 114% | 110% | 104% | 97.7% | 122% | 120% | 118% | 119%
CC(C)(C)c1[nH]cnc1/C=c1\[nH]c(=O)/c(=C/c2ccccc2)[nH]c1=O | 102% | 69% | 20% | 23.9% | 24.3% | 25.5% | 24.3% | 7.62% | 4.47% | 4.16% | 3.59% | 117% | 85.4% | 16.6% | 14% | 16.1% | 17.9% | 12.1% | 4.12% | 3.51% | 2.93% | 2.89% | 106% | 80% | 17.5% | 21.2% | 23.4% | 21.4% | 19.5% | 4.68% | 3.49% | 3.56% | 3.02%
COc1cc(OC)c(/C=C/[S+](=O)([O-])Cc2ccc(OC)c(NCC(=O)[O][Na])c2)c(OC)c1 | 123% | 105% | 125% | 125% | 118% | 75.9% | 29.5% | 28.2% | 27% | 21.9% | 13.4% | 109% | 107% | 115% | 112% | 111% | 66.3% | 20% | 17.8% | 15.2% | 9.59% | 7.67% | 121% | 122% | 122% | 120% | 121% | 24.1% | 24.3% | 18.8% | 10.1% | 7.92% | 8.13%
FC(F)c1nc2ccccc2n1-c1nc(N2CCOCC2)nc(N2CCOCC2)n1 | 85.1% | 79% | 83.6% | 85.9% | 73.8% | 62.8% | 61.3% | 66.6% | 49.7% | 60% | 38.7% | 87.6% | 80.7% | 93.5% | 84.4% | 75.3% | 70.5% | 75.6% | 63.1% | 66% | 62.4% | 45.8% | 84.2% | 78.9% | 71.9% | 87.5% | 72.2% | 68.7% | 60.6% | 63.1% | 66% | 54.3% | 37.1%
C[C@]12CC[C@@H]3c4ccc(O)cc4C[C@@H](CCCCCCCCC[S+]([O-])CCCC(F)(F)C(F)(F)F)[C@H]3[C@@H]1CC[C@@H]2O (stereo not given in full) | 123% | 112% | 114% | 118% | 113% | 112% | 125% | 117% | 119% | 126% | 109% | 89.1% | 84% | 82.8% | 93.2% | 85% | 80.4% | 82.4% | 99.2% | 80.8% | 83.7% | 86.3% | 120% | 124% | 105% | 111% | 110% | 112% | 125% | 114% | 103% | 102% | 81.6%
COC1=CC=C(C=C1)C/2=C/OC3=C(C(=CC(=C3)O)O)C2=O | 108% | 124% | 110% | 95.9% | 115% | 114% | 125% | 124% | 125% | 131% | 75.2% | 90.7% | 92.9% | 101% | 74.8% | 103% | 100% | 108% | 106% | 124% | 114% | 98.2% | 98.7% | 115% | 122% | 77.4% | 133% | 130% | 132% | 138% | 143% | 145% | 132%
COc1ccc(-c2nc(N3CCOCC3)c3sc(CN(C)c4ncc(C(=O)NO)cn4)cc3n2)cn1 | 88.4% | 101% | 67.8% | 34.5% | 6.86% | 6.43% | 6.72% | 6.14% | 6.01% | 5.89% | 4.98% | 90.5% | 83.6% | 49.9% | 20.5% | 6.31% | 6.48% | 5.87% | 5.83% | 6.2% | 5.41% | 3.98% | 97% | 108% | 78.3% | 37.7% | 7.5% | 7.3% | 6.64% | 6.58% | 5.98% | 6.08% | 4.38%
